Measurements reported in patent US6603012B2, “RAR selective retinoid agonists” (Hoffmann-La Roche Inc., priority 2000, dated 2003).

Experiments:
[1] = system: elastase-induced emphysema; assay: Repair of alveoli in the rat model of elastase-induced emphysema (morphometric analysis); format: in vivo, male Sprague Dawley rats; conditions: once daily starting 21 days post elastase injury
Description: RAR selective agonists were evaluated for its effects on alveolar repair in the rat model of elastase-induced emphysema in rats (D. Massaro et al. Nature Medicine (1997, 3, 675). Animals were divided into treatment groups of approximately eight. Lung inflammation and alveolar damage was induced in male Sprague Dawley rats by a single instillation of pancreatic elastase(porcine derived, Calbiochem) 2 U/gram body mass. Three weeks post injury, all-trans retinoic acid or RAR agonist was dissolved in dimethylsulfoxide (20 mg/ml) and stored at −20 C. Fresh working stocks were prepared daily by dilution in PBS to a final concentration of 2 mg/ml. Animals were dosed once daily with the retinoid by intraperitoneal injection or orally, starting 21 days post injury. Control groups were challenged with elastase and 21 days later treated with Vehicle (DMSO/PBS) for 14 days. Animals were sacrificed 24 hours after the last dose by exsanguination under deep anesthesia. The lungs were inflated with 10% neutral buffered formalin by intratracheal instillation at a constant rate (1 ml/gram body mass/min). The lung was excised and immersed in fixative for 24 hours prior to processing. Standard methods were used to prepare 5 um paraffin sections. Sections were stained with Hematoxylin and Eosin (H%E). Computerized Morphometric analysis was performed to determine the average alveolar size and alveolar number (Table 1).

[2] = system: animal models of emphysema; conditions: cited from earlier work
alveoli in rats = conditions: postnatal administration; cited from earlier work

Compound | melting point | further results
CCCCCC(/C=C/c1ccc(C(=O)O)cc1)c1ccc2c(c1)C(C)(C)CCC2(C)C (racemic) [(RS)-(E)-4-[3-(5,5,8,8-tetramethyl-5,6,7,8-tetrahydronaphthalen-2-yl)-oct-1-enyl]-benzoic Acid] | – | % repair area ([1]; 0.003 mg/kg p.o.): 53%; % repair area ([1]; 0.01 mg/kg p.o.): 49%; % repair area ([1]; 0.03 mg/kg p.o.): 32%
CCCCCC(C#Cc1ccc(C(=O)O)cc1)c1ccc2c(c1)C(C)(C)CCC2(C)C (racemic) [Example 12, (RS)-4-[3-(5,5,8,8-tetramethyl-5,6,7,8-tetrahydronaphthalen-2-yl)-oct-1-ynyl]-benzoic Acid] | 115 to 116 °C | –
COC(C(=O)Oc1ccc(C(=O)O)cc1)c1ccc2c(c1)C(C)(C)CCC2(C)C (racemic) [Example 15.2. d), (RS)-4-[methoxy-(5,5,8,8-tetramethyl-5,6,7,8-tetrahydro-naphthalen-2-yl)-acetoxy]-benzoic acid] | 190 to 195 °C | –
CCOC(C(=O)Oc1ccc(C(=O)O)cc1)c1ccc2c(c1)C(C)(C)CCC2(C)C (racemic) [Example 15.3. d), (RS)-4-[ethoxy-(5,5,8,8-tetramethyl-5,6,7,8-tetrahydro-naphthalen-2-yl)-acetoxy]-benzoic acid] | 123 to 125 °C | –
CCCOC(C(=O)Oc1ccc(C(=O)O)cc1)c1ccc2c(c1)C(C)(C)CCC2(C)C (racemic) [Example 15.4. d), (RS)-4-[propoxy-(5,5,8,8-tetramethyl-5,6,7,8-tetrahydro-naphthalen-2-yl)-acetoxy]-benzoic acid] | 155 to 156 °C | –
CCCCOC(C(=O)Oc1ccc(C(=O)O)cc1)c1ccc2c(c1)C(C)(C)CCC2(C)C (single isomer, unassigned) [Example 16 (from diastereomer I), (R)- or (S)-4-[butoxy-(5,5,8,8-tetramethyl-5,6,7,8-tetrahydro-naphthalen-2-yl)-acetoxy]-benzoic acid] | 112 to 113 °C | –
CCCCOC(C(=O)Oc1ccc(C(=O)O)cc1)c1ccc2c(c1)C(C)(C)CCC2(C)C (single isomer, unassigned) [Example 16 (from diastereomer II), (S)- or (R)-4-[butoxy-(5,5,8,8-tetramethyl-5,6,7,8-tetrahydro-naphthalen-2-yl)-acetoxy]-benzoic acid] | 113 to 114 °C | –
CC1=C(/C=C/C(C)=C/C=C/C(C)=C/C(=O)O)C(C)(C)CCC1 [all-trans retinoic acid] | – | formation of new alveoli and elastic recoil [2]: can induce formation of new alveoli and return elastic recoil to near normal; number of alveoli (alveoli in rats): increases the number of alveoli in rats

Further lines, with some results ahead:

melting point | Compound | further results
163 to 164 °C | CC1(C)CCC(C)(C)c2cc(C(Cc3ccccc3)C(=O)Oc3ccc(C(=O)O)cc3)ccc21 (racemic) [Example 3.2, (RS)-4-[3-Phenyl-2-(5,5,8,8-tetramethyl-5,6,7,8-tetrahydronaphthalen-2-yl)-propanoyloxy]-benzoic acid] | –
158 to 159 °C | CC1(C)CCC(C)(C)c2cc(C(Cc3ccc(C(F)(F)F)cc3)C(=O)Oc3ccc(C(=O)O)cc3)ccc21 (racemic) [Example 3.4, (RS)-4-[2-(5,5,8,8-Tetramethyl-5,6,7,8-tetrahydronaphthalen-2-yl)-3-(4-trifluoromethylphenyl)-propanoyloxy]-benzoic acid] | –
133 to 134 °C | CCOCCC(C(=O)Oc1ccc(C(=O)O)cc1)c1ccc2c(c1)C(C)(C)CCC2(C)C (racemic) [Example 3.5, (RS)-4-[4-Ethoxy-2-(5,5,8,8-tetramethyl-5,6,7,8-tetrahydronaphthalen-2-yl)-butanoyloxy]-benzoic acid] | –
203 to 204 °C | CC(/C=C/c1ccc(C(=O)O)cc1)c1ccc2c(c1)C(C)(C)CCC2(C)C (racemic) [Example 10.2, (RS)-(E)-4-[3-(5,5,8,8-Tetramethyl-5,6,7,8-tetrahydronaphthalen-2-yl)-but-1-enyl]-benzoic acid] | –
116 to 118 °C | CCCC(/C=C/c1ccc(C(=O)O)cc1)c1ccc2c(c1)C(C)(C)CCC2(C)C (racemic) [Example 10.3, (RS)-(E)-4-[3-(5,5,8,8-Tetramethyl-5,6,7,8-tetrahydronaphthalen-2-yl)-hex-1-enyl]-benzoic acid] | –
145 to 147 °C | CC=CCC(/C=C/c1ccc(C(=O)O)cc1)c1ccc2c(c1)C(C)(C)CCC2(C)C (racemic) [Example 10.4, (RS)-(E)-4-[3-(5,5,8,8-Tetramethyl-5,6,7,8-tetrahydronaphthalen-2-yl)-hepta-1,5-dienyl]-benzoic acid] | –
107 to 108 °C | CCCCC(/C=C/c1ccc(C(=O)O)cc1)c1ccc2c(c1)C(C)(C)CCC2(C)C (racemic) [Example 10.5, (RS)-(E)-4-[3-(5,5,8,8-Tetramethyl-5,6,7,8-tetrahydronaphthalen-2-yl)-hept-1-enyl]-benzoic acid] | –
61 to 78 °C | CC(C)CC(/C=C/c1ccc(C(=O)O)cc1)c1ccc2c(c1)C(C)(C)CCC2(C)C (racemic) [Example 10.7, (RS)-(E)-4-[5-Methyl-3-(5,5,8,8-tetramethyl-5,6,7,8-tetrahydronaphthalen-2-yl)-hex-1-enyl]-benzoic acid] | –
183 to 184 °C | CC1(C)CCC(C)(C)c2cc(C(/C=C/c3ccc(C(=O)O)cc3)Cc3ccccc3)ccc21 (racemic) [Example 10.8, (RS)-(E)-4-[4-Phenyl-3-(5,5,8,8-tetramethyl-5,6,7,8-tetrahydronaphthalen-2-yl)-but-1-enyl]-benzoic acid] | –
168 to 169 °C | CC1(C)CCC(C)(C)c2cc(C(/C=C/c3ccc(C(=O)O)cc3)Cc3ccc(Cl)cc3)ccc21 (racemic) [Example 10.9, (RS)-(E)-4-[4-(4-Chlorophenyl)-3-(5,5,8,8-tetramethyl-5,6,7,8-tetrahydronaphthalen-2-yl)-but-1-enyl]-benzoic acid] | –
78 to 79 °C | CC1(C)CCC(C)(C)c2cc(C(/C=C/c3ccc(C(=O)O)cc3)CCc3ccccc3)ccc21 (racemic) [Example 10.11, (RS)-(E)-4-[5-Phenyl-3-(5,5,8,8-tetramethyl-5,6,7,8-tetrahydronaphthalen-2-yl)-pent-1-enyl]-benzoic acid] | –
128 to 129 °C | CCCCCC(/C=C/c1ccc(C(=O)O)s1)c1ccc2c(c1)C(C)(C)CCC2(C)C (racemic) [Example 10.12, (RS)-(E)-5-[3-(5,5,8,8-Tetramethyl-5,6,7,8-tetrahydronaphthalen-2-yl)-oct-1-enyl]-thiophene-2-carboxylic acid] | –
168 to 169 °C | CC1(C)CCC(C)(C)c2cc(C(/C=C/c3ccc(C(=O)O)cc3)Cc3ccc(F)cc3)ccc21 (racemic) [Example 10.13, (RS)-(E)-4-[4-(4-Fluorophenyl)-3-(5,5,8,8-tetramethyl-5,6,7,8-tetrahydronaphthalen-2-yl)-but-1-enyl]-benzoic acid] | –
170 to 175 °C | COc1ccc(CC(/C=C/c2ccc(C(=O)O)cc2)c2ccc3c(c2)C(C)(C)CCC3(C)C)cc1 (racemic) [Example 10.15, (RS)-(E)-4-[4-(4-Methoxyphenyl)-3-(5,5,8,8-tetramethyl-5,6,7,8-tetrahydronaphthalen-2-yl)-but-1-enyl]-benzoic acid] | –
112 to 113 °C | CCCCCC(/C=C/c1ccc(C(=O)O)cc1F)c1ccc2c(c1)C(C)(C)CCC2(C)C (racemic) [Example 10.16, (RS)-(E)-3-Fluoro-4-[3-(5,5,8,8-tetramethyl-5,6,7,8-tetrahydronaphthalen-2-yl)-oct-1-enyl]-benzoic acid] | –
183 to 184 °C | CC1(C)CCSc2ccc(C(/C=C/c3ccc(C(=O)O)cc3)Cc3ccccc3)cc21 (racemic) [Example 40.2, (RS)-(E)-4-[3-(4,4-Dimethyl-thiochroman-6-yl)-4-phenylbut-1-enyl]-benzoic acid] | –
63 to 76 °C | CC1(C)CCSc2ccc(C(/C=C/c3ccc(C(=O)O)cc3)CCc3ccccc3)cc21 (racemic) [Example 40.3, (RS)-(E)-4-[3-(4,4-Dimethyl-thiochroman-6-yl)-5-phenylpent-1-enyl]-benzoic acid] | –
195 to 196 °C | CC1(C)CCC(C)(C)c2cc(CCOc3ccc(C(=O)O)cc3)ccc21 [Example 11.2, 4-[2-(5,5,8,8-Tetramethyl-5,6,7,8-tetrahydronaphthalen-2-yl)-ethyloxy]-benzoic acid] | –
